According to patent US12384800B2, “Antitumoral compounds” (priority 2017, dated 2025):

Tests used:
[1] = tested on: A2780 tumors; assay: Human ovarian xenograft, tumor volume
Description: (§1) Female athymic nu/nu mice (Harlan Laboratories Models, S.L. Barcelona, Spain or Envigo, Spain) were utilized for all experiments. Animal were housed in individually ventilated cages Sealsafe® Plus, Techniplast S.P.A.), up to ten per cage on a 12-hour light-dark cycle at 21-23° C. and 40-60% humidity. […] Animals were acclimated for at least 5 days prior to tumor implantation with a tumor cell suspension.
Culture cells were passaged every 3 to 5 days upon reaching confluence. Each animal was subcutaneously implanted (on the right flank using 26G needle and a 1 cc syringe) at 4-6 weeks of age with 10×10^6 A2780 cells suspended in 0.05 mL of a solution consisting of 50% Matrigel® (Corning Incorporated Life Sciences) and 50% medium without serum or antibiotics.
(§2) Treatment tolerability was assessed by monitoring body weight evolution, clinical signs of systemic toxicity, as well as evidences of local damage in the injection site.
(§3) In Xenograft Studies with Other Cell Lines: • Tumor volume was calculated using the equation (a·b^2)/2, where a: length (longest diameter) and b: width (shortest diameter) were measured in mm by using digital caliper (Fowler Sylvac, S235PAT).
(§4) Treatments producing >20% lethality and/or 20% net body weight loss were considered toxic.

[2] = tested on: H460 tumors; assay: Human lung (NSCLC) xenograft, tumor volume
Description: as §1
H460 cells were maintained in vitro at 37° C. with 5% CO2 in Dulbecco's Modified Eagle's Medium (Sigma-Aldrich, Co). Culture cells were passaged every 3 to 5 days upon reaching confluence. Each animal was subcutaneously implanted (on the right flank using 26G needle and a 1 cc syringe) at 4-6 weeks of age with 5×10^6 H460 cells suspended in 0.05 mL of a solution consisting of 50% Matrigel® (Corning Incorporated Life Sciences) and 50% medium without serum or antibiotics.
as §2, §3, §4
Tables and figures summarize the data obtained from complete experimental groups, i.e. those groups keeping the initial number of animals, n=8-10.

[3] = tested on: HGC27 tumors; assay: Human gastric xenograft, tumor volume
Description: as §1
HGC27 cells were maintained in vitro at 37° C. with 5% CO2 in Iscove's Modified Dulbecco's Medium (Sigma Aldrich, Co). Culture cells were passage every 3 to 5 days on reaching confluence. Each animal was subcutaneously implanted (on the right flank using 26G needle and a 1 cc syringe) at 4-6 weeks of age with 5×10^6 HGC-27 cells suspended in 0.05 mL of a solution consisting of 50% Matrigel® (Corning Incorporated Life Sciences), 50% medium without serum or antibiotics.
as §2, §3, §4

[4] = tested on: HT1080 tumors; assay: Human fibrosarcoma xenograft, total diameter (tumor + leg)
Description: as §1
HT1080 cells were maintained in vitro at 37° C. with 5% CO2 in Minimum Essential Medium Eagle (MEME) (Sigma-Aldrich, Co). Each animal was orthotopically implanted into gastroecnemius muscle by an intramuscular injection using a 26G needle and a 1 cc syringe at 4-6 weeks of age, with 10×10^6 HT1080 cells, suspended in serum free medium, without antibiotics.
as §2
In xenograft studies with HT1080 cell line: • Total diameter (tumor+leg) measurements were determined by using digital caliper (Fowler Sylvac, S235PAT).
as §4

[5] = tested on: MDA-MB-231 tumors; assay: Human breast xenograft, tumor volume
Description: as §1
MDA-MB-231 cells were maintained in vitro at 37° C. with 5% CO2 in Dulbecco's Modified Eagle's Medium (Sigma-Aldrich, Co). Culture cells were passaged every 3 to 5 days upon reaching confluence.
as §2, §3, §4

COc1c(C)cc2c(c1O)[C@@H]1[C@@H]3[C@@H]4SC[C@]5(N[C@H](CO)Cc6c5oc5ccccc65)C(=O)OC[C@@H](c5c6c(c(C)c(OC(C)=O)c54)OCO6)N3[C@@H](O)[C@H](C2)N1C [Compound 39-S]
Median Tumor Volume ([1]; Day 2): 206.5 mm^3
Median Tumor Volume ([1]; Day 5): 163.4 mm^3
Median Tumor Volume ([1]; Day 7): 298.6 mm^3
Median Tumor Volume ([1]; Day 9): 317.4 mm^3
Median Tumor Volume ([1]; Day 12): 378.2 mm^3
Median Tumor Volume ([1]; Day 14): 668.5 mm^3
Median Tumor Volume ([1]; Day 16): 853.5 mm^3
Median Tumor Volume ([1]; Day 19): 1415.5 mm^3
Median Tumor Volume ([1]; Day 21): 1519.2 mm^3
Median Tumor Volume ([1]; Day 23): 1666.0 mm^3
Median Tumor Volume ([1]; Day 30): 2025.0 mm^3
Median Tumor Volume ([2]; Day 2): 314.4 mm^3
Median Tumor Volume ([2]; Day 5): 584.1 mm^3
Median Tumor Volume ([2]; Day 7): 831.2 mm^3
Median Tumor Volume ([2]; Day 9): 841.0 mm^3
Median Tumor Volume ([2]; Day 12): 1008.0 mm^3
Median Tumor Volume ([2]; Day 14): 1309.8 mm^3
Median Tumor Volume ([2]; Day 16): 1470.0 mm^3
Median Tumor Volume ([2]; Day 19): 2025.0 mm^3
Median Tumor Volume ([3]; Day 2): 356.3 mm^3
Median Tumor Volume ([3]; Day 5): 469.7 mm^3
Median Tumor Volume ([3]; Day 7): 467.8 mm^3
Median Tumor Volume ([3]; Day 9): 575.2 mm^3
Median Tumor Volume ([3]; Day 12): 611.1 mm^3
Median Tumor Volume ([3]; Day 14): 637.3 mm^3
Median Tumor Volume ([3]; Day 16): 690.4 mm^3
Median Tumor Volume ([3]; Day 19): 701.8 mm^3
Median Tumor Volume ([3]; Day 21): 697.4 mm^3
Median Tumor Volume ([3]; Day 23): 715.5 mm^3
Median Tumor Volume ([3]; Day 26): 898.1 mm^3
Median Tumor Volume ([3]; Day 28): 1163.4 mm^3
Median Tumor Volume ([3]; Day 30): 1409.3 mm^3
Median Tumor Volume ([3]; Day 33): 1450.5 mm^3
Median Tumor Volume ([3]; Day 35): 1708.5 mm^3
Median Tumor Volume ([3]; Day 37): 1804.4 mm^3
Median Tumor Volume ([3]; Day 40): 2075.2 mm^3
Total diameter (tumor + leg) ([4]; Day 2): 7.9 mm
Total diameter (tumor + leg) ([4]; Day 5): 6.4 mm
Total diameter (tumor + leg) ([4]; Day 7): 6.8 mm
Total diameter (tumor + leg) ([4]; Day 9): 6.9 mm
Total diameter (tumor + leg) ([4]; Day 12): 6.6 mm
Total diameter (tumor + leg) ([4]; Day 14): 6.4 mm
Total diameter (tumor + leg) ([4]; Day 16): 6.8 mm
Total diameter (tumor + leg) ([4]; Day 19): 7.0 mm
Total diameter (tumor + leg) ([4]; Day 21): 7.0 mm
Total diameter (tumor + leg) ([4]; Day 23): 8.5 mm
Total diameter (tumor + leg) ([4]; Day 27): 10.8 mm
Total diameter (tumor + leg) ([4]; Day 33): 14.3 mm
Total diameter (tumor + leg) ([4]; Day 35): 15.3 mm
Total diameter (tumor + leg) ([4]; Day 37): 18.0 mm
Median Tumor Volume ([5]; Day 2): 209.3 mm^3
Median Tumor Volume ([5]; Day 5): 290.9 mm^3
Median Tumor Volume ([5]; Day 7): 301.8 mm^3
Median Tumor Volume ([5]; Day 9): 300.8 mm^3
Median Tumor Volume ([5]; Day 12): 278.7 mm^3
Median Tumor Volume ([5]; Day 14): 249.7 mm^3
Median Tumor Volume ([5]; Day 16): 243.6 mm^3
Median Tumor Volume ([5]; Day 19): 248.3 mm^3
Median Tumor Volume ([5]; Day 21): 250.0 mm^3
Median Tumor Volume ([5]; Day 23): 260.3 mm^3
Median Tumor Volume ([5]; Day 26): 304.9 mm^3
Median Tumor Volume ([5]; Day 28): 337.1 mm^3
Median Tumor Volume ([5]; Day 30): 451.3 mm^3
Median Tumor Volume ([5]; Day 33): 584.1 mm^3
Median Tumor Volume ([5]; Day 35): 683.4 mm^3
Median Tumor Volume ([5]; Day 37): 784.7 mm^3
Median Tumor Volume ([5]; Day 40): 937.4 mm^3
Median Tumor Volume ([5]; Day 42): 1060.5 mm^3
Median Tumor Volume ([5]; Day 44): 1170.5 mm^3
Median Tumor Volume ([5]; Day 47): 1112.9 mm^3
Median Tumor Volume ([5]; Day 49): 1138.6 mm^3
Median Tumor Volume ([5]; Day 51): 1283.2 mm^3
Median Tumor Volume ([5]; Day 54): 1415.1 mm^3
Median Tumor Volume ([5]; Day 56): 1518.7 mm^3
Median Tumor Volume ([5]; Day 58): 1728.5 mm^3
Median Tumor Volume ([5]; Day 61): 2017.9 mm^3

COc1c(C)cc2c(c1O)[C@@H]1[C@@H]3[C@@H]4SC[C@]5(N[C@@H](CN)Cc6c5[nH]c5ccccc65)C(=O)OC[C@@H](c5c6c(c(C)c(OC(C)=O)c54)OCO6)N3[C@@H](O)[C@H](C2)N1C [Compound 12-R]
Median Tumor Volume ([1]; Day 2): 302.8 mm^3
Median Tumor Volume ([1]; Day 5): 786.5 mm^3
Median Tumor Volume ([1]; Day 7): 1113.3 mm^3
Median Tumor Volume ([1]; Day 9): 1490.6 mm^3
Median Tumor Volume ([1]; Day 12): 2025.00 mm^3
Median Tumor Volume ([1]; Day 14): 2025.00 mm^3
Median Tumor Volume ([2]; Day 2): 410.7 mm^3
Median Tumor Volume ([2]; Day 5): 796.7 mm^3
Median Tumor Volume ([2]; Day 7): 1167.9 mm^3
Median Tumor Volume ([2]; Day 9): 1360.3 mm^3
Median Tumor Volume ([2]; Day 12): 1666.0 mm^3
Median Tumor Volume ([2]; Day 14): 2025.0 mm^3
Median Tumor Volume ([3]; Day 2): 413.3 mm^3
Median Tumor Volume ([3]; Day 5): 809.1 mm^3
Median Tumor Volume ([3]; Day 7): 1261.5 mm^3
Median Tumor Volume ([3]; Day 9): 1589.5 mm^3
Median Tumor Volume ([3]; Day 12): 2017.9 mm^3
Median Tumor Volume ([3]; Day 14): 2034.9 mm^3
Total diameter (tumor + leg) ([4]; Day 2): 8.9 mm
Total diameter (tumor + leg) ([4]; Day 5): 8.8 mm
Total diameter (tumor + leg) ([4]; Day 7): 9.5 mm
Total diameter (tumor + leg) ([4]; Day 9): 9.5 mm
Total diameter (tumor + leg) ([4]; Day 12): 11.0 mm
Total diameter (tumor + leg) ([4]; Day 14): 11.7 mm
Total diameter (tumor + leg) ([4]; Day 16): 12.9 mm
Total diameter (tumor + leg) ([4]; Day 19): 13.5 mm
Total diameter (tumor + leg) ([4]; Day 21): 15.5 mm
Total diameter (tumor + leg) ([4]; Day 23): 18.0 mm
Median Tumor Volume ([5]; Day 2): 223.0 mm^3
Median Tumor Volume ([5]; Day 5): 296.1 mm^3
Median Tumor Volume ([5]; Day 7): 378.3 mm^3
Median Tumor Volume ([5]; Day 9): 472.7 mm^3
Median Tumor Volume ([5]; Day 12): 609.9 mm^3
Median Tumor Volume ([5]; Day 14): 782.5 mm^3
Median Tumor Volume ([5]; Day 16): 972.4 mm^3
Median Tumor Volume ([5]; Day 19): 1211.0 mm^3
Median Tumor Volume ([5]; Day 21): 1463.4 mm^3
Median Tumor Volume ([5]; Day 23): 1756.5 mm^3
Median Tumor Volume ([5]; Day 26): 2028.6 mm^3

COc1c(C)cc2c(c1O)[C@@H]1[C@@H]3[C@@H]4SC[C@]5(N[C@@H](CN)Cc6c5oc5ccccc65)C(=O)OC[C@@H](c5c6c(c(C)c(OC(C)=O)c54)OCO6)N3[C@@H](O)[C@H](C2)N1C [Compound 47-R]
Median Tumor Volume ([1]; Day 2): 280.6 mm^3
Median Tumor Volume ([1]; Day 5): 653.9 mm^3
Median Tumor Volume ([1]; Day 7): 848.7 mm^3
Median Tumor Volume ([1]; Day 9): 1569.1 mm^3
Median Tumor Volume ([1]; Day 12): 1764.0 mm^3
Median Tumor Volume ([1]; Day 14): 1666.0 mm^3
Median Tumor Volume ([1]; Day 16): 2025.0 mm^3
Median Tumor Volume ([2]; Day 2): 508.1 mm^3
Median Tumor Volume ([2]; Day 5): 979.3 mm^3
Median Tumor Volume ([2]; Day 7): 1280.0 mm^3
Median Tumor Volume ([2]; Day 9): 1543.1 mm^3
Median Tumor Volume ([2]; Day 12): 1764.0 mm^3
Median Tumor Volume ([2]; Day 14): 1845.5 mm^3
Median Tumor Volume ([3]; Day 2): 359.4 mm^3
Median Tumor Volume ([3]; Day 5): 774.8 mm^3
Median Tumor Volume ([3]; Day 7): 1155.4 mm^3
Median Tumor Volume ([3]; Day 9): 1474.7 mm^3
Median Tumor Volume ([3]; Day 12): 1870.2 mm^3
Median Tumor Volume ([3]; Day 14): 2031.3 mm^3
Median Tumor Volume ([3]; Day 16): 2075.2 mm^3
Total diameter (tumor + leg) ([4]; Day 2): 8.9 mm
Total diameter (tumor + leg) ([4]; Day 5): 10.1 mm
Total diameter (tumor + leg) ([4]; Day 7): 10.5 mm
Total diameter (tumor + leg) ([4]; Day 9): 11.5 mm
Total diameter (tumor + leg) ([4]; Day 12): 13.5 mm
Total diameter (tumor + leg) ([4]; Day 14): 13.9 mm
Total diameter (tumor + leg) ([4]; Day 16): 14.6 mm
Total diameter (tumor + leg) ([4]; Day 19): 18.0 mm
Median Tumor Volume ([5]; Day 2): 225.3 mm^3
Median Tumor Volume ([5]; Day 5): 323.2 mm^3
Median Tumor Volume ([5]; Day 7): 405.0 mm^3
Median Tumor Volume ([5]; Day 9): 495.9 mm^3
Median Tumor Volume ([5]; Day 12): 594.1 mm^3
Median Tumor Volume ([5]; Day 14): 769.5 mm^3
Median Tumor Volume ([5]; Day 16): 1009.5 mm^3
Median Tumor Volume ([5]; Day 19): 1298.0 mm^3
Median Tumor Volume ([5]; Day 21): 1580.7 mm^3
Median Tumor Volume ([5]; Day 23): 2006.5 mm^3
Median Tumor Volume ([5]; Day 26): 2032.1 mm^3
